# Literature values as cited in paper PMC7395068, “The evolution of strategies to minimise the risk of human drug-induced liver injury (DILI) in drug discovery and development” (Archives of Toxicology, 2020).
# Read-outs that look alike come from different tables or passages of the source.
# Key:
# [1] = cited from earlier work
# [2] = tested on: hu-MPCC; conditions: cited from earlier work
# [3] = tested on: human hepatocytes; conditions: cited from earlier work
# [4] = tested on: RMPCC's; conditions: cited from earlier work
# [5] = tested on: PHH spheroids; conditions: In vitro Assay; ref Vorrink 2018; cited from earlier work
# [6] = ref Chen 2016; cited from earlier work
# [7] = tested on: HepG2 cells; conditions: In vitro Assay; ref O'Brien 2006; cited from earlier work
# [8] = tested on: Upcyte human hepatocytes; conditions: In vitro Assay; ref Tolosa 2019; cited from earlier work
# [9] = tested on: rBsep; design: method as in Dawson 2012; conditions: In vitro Assay; ref Dawson 2012; cited from earlier work
# [10] = tested on: PHH; conditions: In vitro Assay; ref Albrecht 2019; cited from earlier work
# [11] = tested on: HepG2; conditions: In vitro Assay; ref Albrecht 2019; cited from earlier work
# [12] = tested on: HepG2 cells; conditions: In vitro Assay; ref Tolosa 2012; cited from earlier work
# [13] = In vitro Assay, ref Khetani 2012
compound,measurement,setting,value
C#CC1(O)CC[C@H]2[C@@H]3CCC4=CC(=O)CC[C@@H]4[C@H]3CC[C@@]21CC (stereo partly shown) [norgestrel],In vivo DILI,[1]; in vivo,+VE
same,HMPCC's,[2],-VE
same,Structural based (HCI),[3],-VE
same,RMPCC's,[4],-VE
CNCCc1ccccn1 [betahistine],In vivo DILI,[1]; ref Khetani 2012,+VE
same,In vivo DILI,[1]; ref Vorrink 2018,+VE
same,In vivo DILI,[1]; ref Xu 2008,+VE
same,hLiMTs ATP <20 x Cmax,[5],-VE
same,HMPCC's,[2]; [13],-VE
same,Structural based (HCI),"[3]; In vitro Assay, ref Xu 2008",-VE
same,RMPCC's,[4]; [13],-VE
CC(=O)O[C@]1(C(C)=O)CC[C@H]2[C@@H]3C=C(Cl)C4=CC(=O)[C@@H]5C[C@@H]5[C@]4(C)[C@H]3CC[C@@]21C [cyproterone acetate],In vivo DILI,[1]; […],+VE
same,In vivo DILI,[1]; ref Khetani 2012,+VE
same,In vivo DILI,[1]; ref Xu 2008,+VE
same,HMPCC's,[2]; [13],+VE
same,Structural based (HCI),"[3]; In vitro Assay, ref Xu 2008",-VE
same,RMPCC's,[4]; [13],+VE
COc1ccc2c(c1)[C@]13CCCC[C@@H]1[C@H](C2)N(C)CC3 [dextromethorphan],In vivo DILI,[1]; ref Khetani 2012,-VE
same,In vivo DILI,[1]; ref Xu 2008,-VE
same,HMPCC's,[2]; [13],-VE
same,Structural based (HCI),"[3]; In vitro Assay, ref Xu 2008",-VE
same,RMPCC's,[4]; [13],-VE
same,"DILI +VE (5-8), DILI -VE (-4)",[6],-VE
same,DILI severity category,[6],vNo-DILI-Concern
CCCC(CCC)C(=O)O [valproate],Structural based (HCI),[7],+VE (lowest HCI endpoint IC50 (or in the absence of dose–response < 100 µM) < 30 × total human plasma exposure levels (Cmax.tot))
same,Upcytes multi donor assay 14day data,[8],+VE
same,Inhibition of rBsep cutoff<1& cmax u>.2,[9],-VE
same,Inhibition of rBsep cutoff<3,[9],-VE
NC(=O)NO [hydroxyurea],In vivo DILI,[1]; in vivo,+VE
same,HMPCC's,[2],+VE
same,Structural based (HCI),[3],-VE
same,RMPCC's,[4],+VE
same,"DILI +VE (5-8), DILI -VE (-4)",[6],+VE
same,DILI severity category,[6],vMost-DILI-Concern
CC(=O)N[C@@H](CS)C(=O)O [acetylcysteine],In vivo DILI,[1]; ref Albrecht 2019,-VE
same,In vivo DILI,[1]; ref O'Brien 2006,-VE
same,In vivo DILI,[1]; ref Tolosa 2012,-VE
same,Cytotoxicity PHH 48 hrs,[10],-VE
same,Cytotoxicity HepG2 48 hrs,[11],-VE
same,Structural based (HCI),[7],+VE (lowest HCI endpoint IC50 (or in the absence of dose–response < 100 µM) < 30 × total human plasma exposure levels (Cmax.tot))
same,Structural based (HCI),[12],-VE
same,"DILI +VE (5-8), DILI -VE (-4)",[6],-VE
same,DILI severity category,[6],vNo-DILI-Concern
